In the kinase profiling compilation of Christmann-Franck et al. (2016):

Legend:
Assay in all cases: radiometric filter-binding kinase assay, Kinaseprofiler
PRKCB2 (human) = PRKCB2 (human) (UniProt P05771); details: ATP 10 µM
CAMK2D (human) = CAMK2D (human) (UniProt Q13557); details: ATP 10 µM
RPS6KA5 KD1 KD2 (human) = RPS6KA5 KD1 KD2 (human) (UniProt O75582); details: ATP 90 µM
NTRK2 (human) = NTRK2 (human) (UniProt Q16620); details: ATP 90 µM
CHUK (human) = CHUK (human) (UniProt O15111); details: ATP 10 µM
NEK11 (human) = NEK11 (human) (UniProt Q8NG66); details: ATP 200 µM
PLK2 (human) = PLK2 (human) (UniProt Q9NYY3); details: ATP 120 µM
PRKACA (human) = PRKACA (human) (UniProt P17612); details: ATP 10 µM
NTRK1 (human) = NTRK1 (human) (UniProt P04629); details: ATP 120 µM
CDK2 CCNE1 (human) = CDK2 CCNE1 (human) (UniProt P24941+P24864); details: ATP 120 µM
PAK6 (human) = PAK6 (human) (UniProt Q9NQU5); details: ATP 10 µM
TAOK2 (human) = TAOK2 (human) (UniProt Q9UL54); details: ATP 15 µM
PRKCD (human) = PRKCD (human) (UniProt Q05655); details: ATP 15 µM
CAMK1 (human) = CAMK1 (human) (UniProt Q14012); details: ATP 200 µM
SIK1 (human) = SIK1 (human) (UniProt P57059); details: ATP 45 µM
MAP3K5 (human) = MAP3K5 (human) (UniProt Q99683); details: ATP 200 µM
HCK (human) = HCK (human) (UniProt P08631)
RIPK2 (human) = RIPK2 (human) (UniProt O43353); details: ATP 120 µM
CSNK1D (rat) = details: accession and sequence are those of the human protein
INSRR (human) = INSRR (human) (UniProt P14616); details: ATP 200 µM
DAPK1 (human) = DAPK1 (human) (UniProt P53355); details: ATP 70 µM
CAMK4 (human) = CAMK4 (human) (UniProt Q16566); details: ATP 10 µM
MAPK11 (human) = MAPK11 (human) (UniProt Q15759); details: ATP 45 µM
MAPK3 (human) = MAPK3 (human) (UniProt P27361); details: ATP 70 µM
STK17A (human) = STK17A (human) (UniProt Q9UEE5); details: ATP 10 µM
SRC (human) = SRC (human) (UniProt P12931); details: ATP 200 µM
YES1 (human) = YES1 (human) (UniProt P07947); details: ATP 45 µM
MTOR (human) = MTOR (human) (UniProt P42345); details: ATP 70 µM
LYN (human) = LYN (human) (UniProt P07948); details: ATP 70 µM
GRK6 (human) = GRK6 (human) (UniProt P43250); details: ATP 45 µM
STK24 (human) = STK24 (human) (UniProt Q9Y6E0); details: ATP 15 µM
[1] = target: JAK2 JH1 catalytic (human) (UniProt O60674); details: ATP 45 µM

Chain of HCK (human) (P08631 whole entry, looked up): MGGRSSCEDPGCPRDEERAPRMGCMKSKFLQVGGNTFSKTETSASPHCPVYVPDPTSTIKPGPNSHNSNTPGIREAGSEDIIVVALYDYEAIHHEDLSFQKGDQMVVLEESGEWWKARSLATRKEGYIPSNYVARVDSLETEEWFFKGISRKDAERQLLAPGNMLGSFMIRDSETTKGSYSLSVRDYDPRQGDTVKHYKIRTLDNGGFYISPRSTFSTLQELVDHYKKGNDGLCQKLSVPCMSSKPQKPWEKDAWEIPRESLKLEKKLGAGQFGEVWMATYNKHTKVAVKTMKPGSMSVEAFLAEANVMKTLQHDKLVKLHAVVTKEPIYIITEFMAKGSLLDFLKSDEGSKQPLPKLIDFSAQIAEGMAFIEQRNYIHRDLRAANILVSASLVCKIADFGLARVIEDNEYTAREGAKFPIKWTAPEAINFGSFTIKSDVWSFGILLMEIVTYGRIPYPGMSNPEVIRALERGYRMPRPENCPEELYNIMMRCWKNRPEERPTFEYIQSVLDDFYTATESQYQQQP
Chain of NTRK1 (human) (P04629 whole entry, looked up): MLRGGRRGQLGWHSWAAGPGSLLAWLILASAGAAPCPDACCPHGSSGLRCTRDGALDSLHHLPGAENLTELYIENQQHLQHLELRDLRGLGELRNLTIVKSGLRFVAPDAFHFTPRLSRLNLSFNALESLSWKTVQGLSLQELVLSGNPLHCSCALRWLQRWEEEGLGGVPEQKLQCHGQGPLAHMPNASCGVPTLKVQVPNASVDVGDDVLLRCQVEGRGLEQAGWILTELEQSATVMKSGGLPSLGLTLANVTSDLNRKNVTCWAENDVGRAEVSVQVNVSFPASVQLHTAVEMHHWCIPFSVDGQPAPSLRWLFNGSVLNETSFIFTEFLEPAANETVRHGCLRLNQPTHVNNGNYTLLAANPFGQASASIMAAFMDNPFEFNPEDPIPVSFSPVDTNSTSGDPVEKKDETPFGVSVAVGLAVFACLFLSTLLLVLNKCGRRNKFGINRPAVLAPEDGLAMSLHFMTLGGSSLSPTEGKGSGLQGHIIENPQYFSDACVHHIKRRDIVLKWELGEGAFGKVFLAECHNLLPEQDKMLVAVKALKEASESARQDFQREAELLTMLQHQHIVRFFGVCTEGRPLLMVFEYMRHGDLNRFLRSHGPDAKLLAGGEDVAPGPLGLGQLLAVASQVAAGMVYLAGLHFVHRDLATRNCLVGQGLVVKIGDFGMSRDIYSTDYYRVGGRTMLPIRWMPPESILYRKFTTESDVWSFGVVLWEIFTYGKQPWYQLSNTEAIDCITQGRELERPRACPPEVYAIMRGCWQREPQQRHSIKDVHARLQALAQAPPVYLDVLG
Chain of RPS6KA5 KD1 KD2 (human) (O75582 whole entry, looked up): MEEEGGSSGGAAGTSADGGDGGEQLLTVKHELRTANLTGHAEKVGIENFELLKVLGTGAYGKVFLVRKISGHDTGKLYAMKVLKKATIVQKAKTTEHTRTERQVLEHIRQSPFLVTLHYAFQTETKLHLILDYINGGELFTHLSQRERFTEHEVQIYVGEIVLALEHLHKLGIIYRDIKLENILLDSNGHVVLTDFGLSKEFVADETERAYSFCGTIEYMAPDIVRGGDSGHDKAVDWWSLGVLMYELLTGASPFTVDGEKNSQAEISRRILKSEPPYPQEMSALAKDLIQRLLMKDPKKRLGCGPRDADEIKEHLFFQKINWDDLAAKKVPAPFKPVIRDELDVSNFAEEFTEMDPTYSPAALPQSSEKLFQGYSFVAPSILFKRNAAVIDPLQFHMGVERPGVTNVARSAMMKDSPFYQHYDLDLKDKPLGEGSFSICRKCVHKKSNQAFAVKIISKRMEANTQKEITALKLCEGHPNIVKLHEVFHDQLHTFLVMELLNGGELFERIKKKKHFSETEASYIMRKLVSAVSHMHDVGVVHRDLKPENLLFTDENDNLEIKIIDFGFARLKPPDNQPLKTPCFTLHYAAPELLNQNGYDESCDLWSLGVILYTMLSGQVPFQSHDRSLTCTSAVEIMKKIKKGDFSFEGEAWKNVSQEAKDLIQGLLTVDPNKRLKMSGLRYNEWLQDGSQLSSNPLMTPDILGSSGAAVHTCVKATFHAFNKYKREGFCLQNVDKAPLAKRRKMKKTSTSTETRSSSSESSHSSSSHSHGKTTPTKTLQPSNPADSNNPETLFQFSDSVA
Chain of PAK6 (human) (Q9NQU5 whole entry, looked up): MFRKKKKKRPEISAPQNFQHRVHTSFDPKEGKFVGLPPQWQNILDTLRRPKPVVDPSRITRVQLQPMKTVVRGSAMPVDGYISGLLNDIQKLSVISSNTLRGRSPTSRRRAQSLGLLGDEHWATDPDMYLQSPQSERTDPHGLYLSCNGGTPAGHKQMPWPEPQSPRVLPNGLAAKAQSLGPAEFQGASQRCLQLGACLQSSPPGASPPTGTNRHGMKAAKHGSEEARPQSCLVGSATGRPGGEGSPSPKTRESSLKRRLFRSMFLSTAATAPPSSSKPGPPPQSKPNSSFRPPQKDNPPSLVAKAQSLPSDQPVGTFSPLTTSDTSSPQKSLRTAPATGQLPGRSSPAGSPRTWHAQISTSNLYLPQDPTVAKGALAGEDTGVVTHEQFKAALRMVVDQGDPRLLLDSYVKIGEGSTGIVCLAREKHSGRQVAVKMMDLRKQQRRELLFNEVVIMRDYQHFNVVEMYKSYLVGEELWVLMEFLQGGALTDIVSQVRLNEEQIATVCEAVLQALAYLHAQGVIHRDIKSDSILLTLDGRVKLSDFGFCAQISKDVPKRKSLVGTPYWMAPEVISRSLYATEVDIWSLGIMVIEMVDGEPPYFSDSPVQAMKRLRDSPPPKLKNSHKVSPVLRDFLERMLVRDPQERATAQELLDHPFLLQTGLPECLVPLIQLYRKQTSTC
Chain of CAMK2D (human) (Q13557 whole entry, looked up): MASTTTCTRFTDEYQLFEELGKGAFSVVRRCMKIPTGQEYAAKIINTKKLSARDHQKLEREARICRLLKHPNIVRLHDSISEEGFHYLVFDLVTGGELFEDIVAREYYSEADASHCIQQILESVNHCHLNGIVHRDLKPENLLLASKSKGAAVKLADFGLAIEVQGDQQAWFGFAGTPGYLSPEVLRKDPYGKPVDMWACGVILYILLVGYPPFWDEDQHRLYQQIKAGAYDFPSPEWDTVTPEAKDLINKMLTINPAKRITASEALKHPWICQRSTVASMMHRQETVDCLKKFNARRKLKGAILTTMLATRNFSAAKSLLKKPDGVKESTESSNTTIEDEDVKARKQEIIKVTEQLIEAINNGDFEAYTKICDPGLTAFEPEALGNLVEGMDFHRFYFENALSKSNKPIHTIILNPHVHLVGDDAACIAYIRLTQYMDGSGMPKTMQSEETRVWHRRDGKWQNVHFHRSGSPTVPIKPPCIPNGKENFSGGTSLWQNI
Chain of CDK2 CCNE1 (human) (P24864 whole entry, looked up, other chains not shown): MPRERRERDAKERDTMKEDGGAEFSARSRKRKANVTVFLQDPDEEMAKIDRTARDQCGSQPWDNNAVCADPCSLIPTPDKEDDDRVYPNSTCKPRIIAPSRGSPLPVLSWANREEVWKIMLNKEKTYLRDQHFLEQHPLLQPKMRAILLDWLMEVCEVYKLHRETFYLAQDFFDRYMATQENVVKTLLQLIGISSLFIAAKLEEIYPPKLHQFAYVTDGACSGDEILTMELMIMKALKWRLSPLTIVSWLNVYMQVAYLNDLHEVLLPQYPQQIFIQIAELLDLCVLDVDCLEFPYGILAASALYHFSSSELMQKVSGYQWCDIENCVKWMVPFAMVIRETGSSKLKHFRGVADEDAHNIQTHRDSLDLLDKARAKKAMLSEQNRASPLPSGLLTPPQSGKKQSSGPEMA
Chain of LYN (human) (P07948 whole entry, looked up): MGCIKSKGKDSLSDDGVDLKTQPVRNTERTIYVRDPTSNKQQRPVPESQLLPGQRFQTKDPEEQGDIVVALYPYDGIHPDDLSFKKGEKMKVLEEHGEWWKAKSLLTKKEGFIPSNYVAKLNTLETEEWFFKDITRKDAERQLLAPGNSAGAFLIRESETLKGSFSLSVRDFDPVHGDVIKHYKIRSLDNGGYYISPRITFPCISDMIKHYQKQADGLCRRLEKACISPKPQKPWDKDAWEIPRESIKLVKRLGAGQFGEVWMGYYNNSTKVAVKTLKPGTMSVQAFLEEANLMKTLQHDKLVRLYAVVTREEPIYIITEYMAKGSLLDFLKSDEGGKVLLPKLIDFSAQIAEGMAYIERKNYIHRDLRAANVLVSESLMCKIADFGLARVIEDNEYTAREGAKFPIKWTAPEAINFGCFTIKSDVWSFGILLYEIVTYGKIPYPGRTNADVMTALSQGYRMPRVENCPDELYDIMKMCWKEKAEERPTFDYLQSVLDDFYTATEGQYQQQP
Chain of PRKCD (human) (Q05655 whole entry, looked up): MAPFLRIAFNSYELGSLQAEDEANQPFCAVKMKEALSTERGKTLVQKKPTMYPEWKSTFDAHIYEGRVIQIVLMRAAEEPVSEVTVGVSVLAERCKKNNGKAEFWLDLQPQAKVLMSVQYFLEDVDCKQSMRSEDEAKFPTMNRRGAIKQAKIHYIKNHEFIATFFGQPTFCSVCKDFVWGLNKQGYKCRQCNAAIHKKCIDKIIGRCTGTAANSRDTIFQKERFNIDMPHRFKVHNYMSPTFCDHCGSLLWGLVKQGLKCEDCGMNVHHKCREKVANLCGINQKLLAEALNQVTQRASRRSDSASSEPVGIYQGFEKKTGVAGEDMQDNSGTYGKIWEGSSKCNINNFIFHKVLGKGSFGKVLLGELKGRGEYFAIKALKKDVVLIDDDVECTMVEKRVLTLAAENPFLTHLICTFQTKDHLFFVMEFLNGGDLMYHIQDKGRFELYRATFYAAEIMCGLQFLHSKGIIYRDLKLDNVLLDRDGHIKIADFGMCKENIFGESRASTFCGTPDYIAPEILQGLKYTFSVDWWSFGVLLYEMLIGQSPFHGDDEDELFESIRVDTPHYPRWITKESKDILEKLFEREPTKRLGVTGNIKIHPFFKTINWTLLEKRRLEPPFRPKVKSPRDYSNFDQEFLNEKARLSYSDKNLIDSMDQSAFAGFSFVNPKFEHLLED

residual activity (PRKCB2 (human); compound 1.0 µM): 108% | residual activity (PRKCB2 (human); compound 10.0 µM): 102% | residual activity (CAMK2D (human); compound 1.0 µM): 43% | residual activity (CAMK2D (human); compound 10.0 µM): 8% | residual activity (RPS6KA5 KD1 KD2 (human); compound 1.0 µM): 93% | residual activity (RPS6KA5 KD1 KD2 (human); compound 10.0 µM): 69% | residual activity (NTRK2 (human); compound 1.0 µM): 32% | residual activity (NTRK2 (human); compound 10.0 µM): 5% | residual activity (CHUK (human); compound 1.0 µM): 57% | residual activity (CHUK (human); compound 10.0 µM): 21% | residual activity (NEK11 (human); compound 1.0 µM): 50% | residual activity (NEK11 (human); compound 10.0 µM): 47% | residual activity (PLK2 (human); compound 1.0 µM): 85% | residual activity (PLK2 (human); compound 10.0 µM): 61% | residual activity (PRKACA (human); compound 1.0 µM): 89% | residual activity (PRKACA (human); compound 10.0 µM): 73% | residual activity (NTRK1 (human); compound 1.0 µM): 10% | residual activity (NTRK1 (human); compound 10.0 µM): -1% | residual activity (CDK2 CCNE1 (human); compound 1.0 µM): 8% | residual activity (CDK2 CCNE1 (human); compound 10.0 µM): 3% | residual activity (PAK6 (human); compound 1.0 µM): 91% | residual activity (PAK6 (human); compound 10.0 µM): 49% | residual activity (TAOK2 (human); compound 1.0 µM): 101% | residual activity (TAOK2 (human); compound 10.0 µM): 69% | residual activity (PRKCD (human); compound 1.0 µM): 99% | residual activity (PRKCD (human); compound 10.0 µM): 71% | residual activity (CAMK1 (human); compound 1.0 µM): 77% | residual activity (CAMK1 (human); compound 10.0 µM): 32% | residual activity (SIK1 (human); compound 1.0 µM): 96% | residual activity (SIK1 (human); compound 10.0 µM): 48% | residual activity (MAP3K5 (human); compound 1.0 µM): 36% | residual activity (MAP3K5 (human); compound 10.0 µM): 5% | residual activity (HCK (human); compound 1.0 µM, ATP 45 µM): 80% | residual activity (HCK (human); compound 1.0 µM, ATP 70 µM): 57% | residual activity (HCK (human); compound 10.0 µM, ATP 45 µM): 83% | residual activity (HCK (human); compound 10.0 µM, ATP 70 µM): 27% | residual activity (RIPK2 (human); compound 1.0 µM): 70% | residual activity (RIPK2 (human); compound 10.0 µM): 52% | residual activity (CSNK1D (rat); compound 1.0 µM): 5% | residual activity (CSNK1D (rat); compound 10.0 µM): 1% | residual activity (INSRR (human); compound 1.0 µM): 102% | residual activity (INSRR (human); compound 10.0 µM): 51% | residual activity (DAPK1 (human); compound 1.0 µM): 91% | residual activity (DAPK1 (human); compound 10.0 µM): 68% | residual activity (CAMK4 (human); compound 1.0 µM): 73% | residual activity (CAMK4 (human); compound 10.0 µM): 24% | residual activity (MAPK11 (human); compound 1.0 µM): 88% | residual activity (MAPK11 (human); compound 10.0 µM): 79% | residual activity (MAPK3 (human); compound 1.0 µM): 59% | residual activity (MAPK3 (human); compound 10.0 µM): 72% | residual activity (STK17A (human); compound 1.0 µM): 6% | residual activity (STK17A (human); compound 10.0 µM): 2% | residual activity (SRC (human); compound 1.0 µM): 89% | residual activity (SRC (human); compound 10.0 µM): 64% | residual activity (YES1 (human); compound 1.0 µM): 98% | residual activity (YES1 (human); compound 10.0 µM): 51% | residual activity (MTOR (human); compound 1.0 µM): 104% | residual activity (MTOR (human); compound 10.0 µM): 77% | residual activity (LYN (human); compound 1.0 µM): 70% | residual activity (LYN (human); compound 10.0 µM): 30% | residual activity (GRK6 (human); compound 1.0 µM): 87% | residual activity (GRK6 (human); compound 10.0 µM): 81% | residual activity (STK24 (human); compound 1.0 µM): 57% | residual activity (STK24 (human); compound 10.0 µM): 21% | residual activity ([1]; compound 1.0 µM): 58% | residual activity ([1]; compound 10.0 µM): 11%
SMILES: O=C1c2ccccc2-c2n[nH]c3cccc1c23
